# Measured values: patent US20230117470A1, “SUBSTITUTED PYRAZOLE COMPOUNDS AS TOLL RECEPTOR INHIBITORS” (BRISTOL-MYERS SQUIBB COMPANY, priority 2019, published 2023)
# Key:
# Assay type in all cases: cell-based
# [1] = molecular target: T1, human TLR9 (Homo sapiens, UniProt Q9NR96); assay: TLR9 inhibition reporter assay (HEK-Blue cells, SEAP reporter, ODN2006 stimulation); conditions: HEK-Blue cells overexpressing human TLR9, SEAP reporter, ODN2006 5 nM
# T1 construct: host or cells: HEK-Blue cells
# T1 sequence (Q9NR96 26-1032): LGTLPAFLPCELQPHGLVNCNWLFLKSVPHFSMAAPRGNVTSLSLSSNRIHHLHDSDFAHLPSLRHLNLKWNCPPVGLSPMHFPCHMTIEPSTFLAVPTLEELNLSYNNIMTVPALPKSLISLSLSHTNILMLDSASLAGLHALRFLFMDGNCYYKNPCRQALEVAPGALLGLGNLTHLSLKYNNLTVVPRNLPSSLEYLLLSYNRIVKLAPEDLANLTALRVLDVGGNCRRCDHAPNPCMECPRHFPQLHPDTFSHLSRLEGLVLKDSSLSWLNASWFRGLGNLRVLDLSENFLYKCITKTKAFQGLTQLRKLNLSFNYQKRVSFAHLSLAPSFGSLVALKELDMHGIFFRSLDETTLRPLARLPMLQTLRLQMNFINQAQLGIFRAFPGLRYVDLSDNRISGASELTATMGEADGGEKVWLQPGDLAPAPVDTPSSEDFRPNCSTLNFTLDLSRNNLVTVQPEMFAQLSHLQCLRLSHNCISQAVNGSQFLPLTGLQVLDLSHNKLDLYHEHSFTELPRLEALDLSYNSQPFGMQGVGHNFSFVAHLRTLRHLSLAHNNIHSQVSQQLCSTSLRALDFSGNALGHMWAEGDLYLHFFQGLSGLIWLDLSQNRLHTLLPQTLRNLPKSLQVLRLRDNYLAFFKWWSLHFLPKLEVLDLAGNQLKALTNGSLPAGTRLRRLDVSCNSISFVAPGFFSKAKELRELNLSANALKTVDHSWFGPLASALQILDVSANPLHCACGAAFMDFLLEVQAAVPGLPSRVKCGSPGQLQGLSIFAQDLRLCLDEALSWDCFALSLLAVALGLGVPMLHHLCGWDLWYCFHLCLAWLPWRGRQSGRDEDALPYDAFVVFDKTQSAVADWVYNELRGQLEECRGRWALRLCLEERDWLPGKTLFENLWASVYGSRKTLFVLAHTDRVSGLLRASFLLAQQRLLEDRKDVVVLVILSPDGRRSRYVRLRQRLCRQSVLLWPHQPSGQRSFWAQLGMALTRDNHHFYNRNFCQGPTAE
# Procedure, shortened: (§1)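 HEK-Blue cells overexpressing human TLR7, TLR8 or TLR9, with an NF-κB/AP-1-driven SEAP reporter, pre-treated 30 min at room temperature with compound (0.05 nM-50 μM final). Stimulated with 7.5 μM gardiquimod (TLR7), 15.9 μM R848 (TLR8) or 5 nM ODN2006 (TLR9), then 22 h at 37° C. SEAP read with HEK-Blue Detection; % inhibition set against agonist+DMSO and known-inhibitor wells.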
# [2] = molecular target: T2, human TLR8 (Homo sapiens, UniProt Q9NR97); assay: TLR8 inhibition reporter assay (HEK-Blue cells, SEAP reporter, R848 stimulation); conditions: HEK-Blue cells overexpressing human TLR8, SEAP reporter, R848 15.9 μM
# T2 construct: host or cells: HEK-Blue cells
# T2 sequence (Q9NR97 27-1041): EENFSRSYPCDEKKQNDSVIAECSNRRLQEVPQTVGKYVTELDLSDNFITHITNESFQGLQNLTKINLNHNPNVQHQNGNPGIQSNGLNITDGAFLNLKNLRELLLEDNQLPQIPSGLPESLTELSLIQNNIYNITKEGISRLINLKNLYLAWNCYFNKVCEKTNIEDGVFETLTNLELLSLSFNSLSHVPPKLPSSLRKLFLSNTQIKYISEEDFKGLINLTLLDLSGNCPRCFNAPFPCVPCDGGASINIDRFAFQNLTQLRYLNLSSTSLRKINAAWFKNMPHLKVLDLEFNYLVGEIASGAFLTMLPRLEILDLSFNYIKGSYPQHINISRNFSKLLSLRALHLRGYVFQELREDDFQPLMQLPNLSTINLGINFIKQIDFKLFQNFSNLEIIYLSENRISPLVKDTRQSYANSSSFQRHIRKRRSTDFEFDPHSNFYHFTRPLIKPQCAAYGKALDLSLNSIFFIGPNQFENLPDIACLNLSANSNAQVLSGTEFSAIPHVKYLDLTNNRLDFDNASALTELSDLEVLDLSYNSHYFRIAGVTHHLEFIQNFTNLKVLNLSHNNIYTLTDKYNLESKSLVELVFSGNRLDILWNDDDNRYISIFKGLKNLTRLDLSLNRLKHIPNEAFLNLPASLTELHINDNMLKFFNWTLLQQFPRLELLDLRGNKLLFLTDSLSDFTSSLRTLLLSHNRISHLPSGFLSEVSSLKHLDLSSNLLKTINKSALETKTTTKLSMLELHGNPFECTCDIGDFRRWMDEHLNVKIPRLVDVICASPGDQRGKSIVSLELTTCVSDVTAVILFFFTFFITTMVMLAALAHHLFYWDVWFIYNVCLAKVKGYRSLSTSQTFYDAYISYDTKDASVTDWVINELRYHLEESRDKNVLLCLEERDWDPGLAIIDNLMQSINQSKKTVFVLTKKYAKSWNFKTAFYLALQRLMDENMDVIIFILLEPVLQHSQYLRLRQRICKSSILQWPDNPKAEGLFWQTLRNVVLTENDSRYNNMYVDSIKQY
# Procedure, shortened: as §1
# [3] = molecular target: T3, human TLR7 (Homo sapiens, UniProt Q9NYK1); assay: TLR7 inhibition reporter assay (HEK-Blue cells, SEAP reporter, gardiquimod stimulation); conditions: HEK-Blue cells overexpressing human TLR7, SEAP reporter, gardiquimod 7.5 μM
# T3 construct: host or cells: HEK-Blue cells
# T3 sequence (Q9NYK1 27-1049): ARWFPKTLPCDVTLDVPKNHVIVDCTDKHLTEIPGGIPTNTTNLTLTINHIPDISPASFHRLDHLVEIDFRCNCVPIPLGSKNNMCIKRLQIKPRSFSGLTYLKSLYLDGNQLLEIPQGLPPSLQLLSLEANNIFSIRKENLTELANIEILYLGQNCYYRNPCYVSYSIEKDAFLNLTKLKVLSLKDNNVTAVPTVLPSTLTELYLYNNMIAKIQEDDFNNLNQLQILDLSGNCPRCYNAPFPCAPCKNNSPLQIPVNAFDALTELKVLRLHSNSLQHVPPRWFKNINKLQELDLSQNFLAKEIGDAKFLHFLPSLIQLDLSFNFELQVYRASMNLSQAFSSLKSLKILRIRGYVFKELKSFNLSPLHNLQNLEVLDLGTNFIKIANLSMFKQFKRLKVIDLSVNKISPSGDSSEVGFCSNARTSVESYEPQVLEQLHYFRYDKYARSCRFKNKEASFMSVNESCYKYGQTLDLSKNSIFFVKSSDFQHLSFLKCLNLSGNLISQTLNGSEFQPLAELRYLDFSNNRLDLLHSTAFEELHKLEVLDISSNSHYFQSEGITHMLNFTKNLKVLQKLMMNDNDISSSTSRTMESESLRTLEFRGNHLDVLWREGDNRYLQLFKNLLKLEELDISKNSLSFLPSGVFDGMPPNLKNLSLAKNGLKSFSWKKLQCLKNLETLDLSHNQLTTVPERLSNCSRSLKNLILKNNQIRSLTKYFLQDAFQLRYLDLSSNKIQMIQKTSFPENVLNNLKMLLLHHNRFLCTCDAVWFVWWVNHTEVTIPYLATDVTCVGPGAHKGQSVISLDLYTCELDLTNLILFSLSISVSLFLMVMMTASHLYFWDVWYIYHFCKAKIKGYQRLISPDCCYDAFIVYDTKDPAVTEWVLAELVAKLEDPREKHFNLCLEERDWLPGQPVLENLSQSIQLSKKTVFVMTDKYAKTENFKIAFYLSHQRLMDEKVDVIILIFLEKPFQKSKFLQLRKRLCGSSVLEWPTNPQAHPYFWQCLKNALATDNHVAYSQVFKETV
# Procedure, shortened: as §1
SMILES,IC50 [1] [µM],IC50 [2] [µM],IC50 [3] [µM]
COc1cc(-c2[nH]nc(C(=O)NC3CCNCC3)c2C(C)C)cn2ncnc12 [Example 60],> 50,0.0279,0.0366
COCCNc1ccc2nc(-c3n[nH]c(-c4cc(C)c5ncnn5c4)c3C(C)C)sc2c1 [Example 267],> 50,0.00716,0.0243
Cc1cc(-c2[nH]nc(C(=O)N[C@H]3CC[C@@H](NC(C)C(C)(C)C)CC3)c2C(C)C)cn2ncnc12 (stereo partly drawn) [Example 150],2.83,0.00039,0.00057
Cc1cc(-c2[nH]nc(C(=O)N[C@H]3CC[C@H](NC4CCOCC4)CC3)c2C(C)C)cn2ncnc12 [Example 116],3.88,0.00191,0.00311
Cc1cc(-c2[nH]nc(C(=O)NC3CCN(C4COC4)CC3)c2C(C)C)cn2ncnc12 [Example 70],6.61,0.00146,0.00058
Cc1cc(-c2[nH]nc(-c3ccc(C4CCN(C5COC5)CC4)cc3)c2C(C)C)cn2ncnc12 [Example 311],18.8,> 3.13,1.4
Cc1cc(-c2[nH]nc(-c3ccc(C4CCN(C)CC4)cc3)c2C(C)C)cn2ncnc12 [Example 309],14.4,0.00419,0.00667
Cc1cc(-c2[nH]nc(C(=O)N[C@H]3CC[C@H](NCc4cccnc4)CC3)c2C(C)C)cn2ncnc12 [Example 112],> 50,0.0283,0.0114
Cc1cc(-c2[nH]nc(C(=O)NCC3CN(CC(C)(C)C)CCO3)c2C(C)C)cn2ncnc12 (stereo not drawn) [Example 145],> 50,0.0416,0.0603
Cc1cc(-c2[nH]nc(C(=O)N[C@H]3CCCN(CC4=NC(C)N=N4)C3)c2C(C)C)cn2ncnc12 (stereo partly drawn) [Example 165],22.8,0.0144,0.00161
CCN1CCc2nc(-c3n[nH]c(-c4cc(OC)c5ncnn5c4)c3C(C)C)sc2C1 [Example 261],17.1,0.00226,0.00843
Cc1cc(-c2[nH]nc(-c3nc4c(s3)CCNC4)c2C(C)C)cn2ncnc12 [Example 221],> 50,0.0333,0.00308
COc1cc(-c2[nH]nc(-c3ccc(C4CCN(C(C)C)CC4)cn3)c2C(C)C)cn2ncnc12 [Example 350],21.7,0.00012,0.00811
"Cc1cc(-c2[nH]nc(-c3ccc(C4CN(CC(C)(C)O)C4)cc3)c2C(C)C)cn2ncnc12 [Example 336, 1-(3-(4-(4-isopropyl-5-(8-methyl-[1,2,4]triazolo[1,5-a]pyridin-6-yl)-1H-pyrazol-3-yl)phenyl)azetidin-1-yl)-2-methylpropan-2-ol]",38.1,0.0397,0.0135
Cc1cc(-c2[nH]nc(-c3ccc(C4CCN(C(C)C)CC4)nc3)c2C(C)C)cn2ncnc12 [Example 361],45.6,> 3.13,0.719
"Cc1cc(-c2c(C(C)C)c(C(=O)NC3CCN(CC(F)(F)F)CC3)nn2CC(F)(F)F)cn2ncnc12 [Example 175, 4-isopropyl-5-(8-methyl-[1,2,4]triazolo[1,5-a]pyridin-6-yl)-1-(2,2,2-trifluoroethyl)-N-(1-(2,2,2-trifluoroethyl)piperidin-4-yl)-1H-pyrazole-3-carboxamide]",6.25,0.00623,0.00376
COCC(C)N[C@H]1CC[C@@H](NC(=O)c2n[nH]c(-c3cc(C)c4ncnn4c3)c2C(C)C)CC1 (stereo partly drawn) [Example 147],18.8,0.00567,0.0901
Cc1cc(-c2[nH]nc(-c3nc4ccc(NC(C)C)cc4s3)c2C(C)C)cn2ncnc12 [Example 258],29.4,0.00916,0.0365
Cc1cc(-c2[nH]nc(C(=O)NCC3CN(CC(C)(C)O)CCO3)c2C(C)C)cn2ncnc12 (stereo not drawn) [Example 143],9.28,0.0196,0.00534
Cc1cc(-c2[nH]nc(C(=O)NC3CN(C(C)C)C3)c2C(C)C)cn2ncnc12 [Example 155],> 50,0.0215,0.0415
"Cc1cc(-c2[nH]nc(C(=O)NC3CCN(C(=O)OC(C)(C)C)CC3)c2C(C)C)cn2ncnc12 [Example 1, tert-butyl 4-(4-isopropyl-5-(8-methyl-[1,2,4]triazolo[1,5-a]pyridin-6-yl)-1H-pyrazole-3-carboxamido)piperidine-1-carboxylate]",0.76,0.00814,0.00201
"Cc1cc(-c2[nH]nc(C3CCC(N(C)CC(=O)N(C)C)CC3)c2C(C)C)cn2ncnc12 (single isomer, unassigned) [compound 299]",12.7,0.00072,0.00142
Cc1cc(-c2[nH]nc(C(=O)N[C@H]3CC[C@H](NC4CCOC(C)(C)C4)CC3)c2C(C)C)cn2ncnc12 (stereo partly drawn) [Example 115],1.21,0.017,0.0117
